Assay results reported in ChEMBL document CHEMBL4433266, “Design, synthesis and antimycobacterial activity of benzoxazinone derivatives and open-ring analogues: Preliminary data and computational analysis” (Bioorg Med Chem Lett, 2019).
In brackets after ≈: the same amount, converted by molar mass.

Assays:
Assay type in all cases: functional
[1] = system: Mycobacterium tuberculosis; assay: Antimycobacterial activity against Pyrazinamide-resistant Mycobacterium tuberculosis ATCC 35828 assessed as inhibition of bacterial cell growth incubated for 7 days by resazurin microtiter assay; conditions: ATCC 35828, 168 h
[2] = system: Mycobacterium tuberculosis; assay: Antimycobacterial activity against Isoniazid-resistant Mycobacterium tuberculosis ATCC 35822 assessed as inhibition of bacterial cell growth incubated for 7 days by resazurin microtiter assay; conditions: ATCC 35822, 168 h
[3] = system: Mycobacterium tuberculosis; assay: Antimycobacterial activity against Rifampicin-resistant Mycobacterium tuberculosis ATCC 35838 assessed as inhibition of bacterial cell growth incubated for 7 days by resazurin microtiter assay; conditions: ATCC 35838, 168 h
[4] = system: Mycobacterium tuberculosis; assay: Antimycobacterial activity against Streptomycin-resistant Mycobacterium tuberculosis ATCC 35820 assessed as inhibition of bacterial cell growth incubated for 7 days by resazurin microtiter assay; conditions: ATCC 35820, 168 h

`COC(=O)/C=C1\Nc2ccccc2OC1=O` was tested, and the MIC [1] was 4.5 µM (≈ 0.986 µg/mL), the MIC [2] was > 146 µM and the MIC [3] was 9.1 µM (≈ 1.99 µg/mL). The MIC [4] was 4.5 µM (≈ 0.986 µg/mL).
For `COC(=O)/C=C1\Nc2cc(Cl)ccc2OC1=O`, the MIC [1] was 31 µM (≈ 7.86 µg/mL), the MIC [2] was > 126 µM and the MIC [3] was 63 µM (≈ 16 µg/mL). The MIC [4] was 63 µM (≈ 16 µg/mL).
In the case of `COC(=O)/C=C1\Nc2ccc(Cl)cc2OC1=O`, the MIC [1] is reported as 3.9 µM (≈ 0.989 µg/mL), the MIC [2] is reported as > 126 µM and the MIC [3] is reported as 3.9 µM (≈ 0.989 µg/mL). The MIC [4] was 3.9 µM (≈ 0.989 µg/mL).
In the case of `O=C1Oc2ccccc2N/C1=C\C(=O)c1c[nH]c2ccccc12`, the MIC [1] is reported as 3.3 µM (≈ 1 µg/mL), the MIC [2] is reported as > 105 µM and the MIC [3] is reported as 3.3 µM (≈ 1 µg/mL). It also gave an MIC [4] of 3.3 µM (≈ 1 µg/mL).
Compound `O=C1Oc2ccccc2N/C1=C\C(=O)c1cccs1` has an MIC [1] of 14.7 µM (≈ 3.99 µg/mL), an MIC [2] of 118 µM (≈ 32 µg/mL) and an MIC [3] of 14.7 µM (≈ 3.99 µg/mL). For the same compound, the MIC [4] was 14.7 µM (≈ 3.99 µg/mL).
In the case of `O=C1Oc2ccccc2N/C1=C\C(=O)N1CCOCC1`, the MIC [1] is reported as 3.6 µM (≈ 0.987 µg/mL), the MIC [2] is reported as > 117 µM and the MIC [3] is reported as 7.3 µM (≈ 2 µg/mL). For the same compound, the MIC [4] was 7.3 µM (≈ 2 µg/mL).
For `O=C(NNC(=O)c1ccncc1)C(=O)Nc1ccccc1O`, the MIC [1] was 6.7 µM (≈ 2.01 µg/mL), the MIC [2] was > 106 µM and the MIC [3] was 3.3 µM (≈ 0.991 µg/mL). For the same compound, the MIC [4] was 26.7 µM (≈ 8.02 µg/mL).
In the case of `O=C(NNC(=O)c1ccncc1)C(=O)Nc1ccc(Cl)cc1O`, the MIC [1] is reported as 12 µM (≈ 4.02 µg/mL), the MIC [2] is reported as > 96 µM and the MIC [3] is reported as 12 µM (≈ 4.02 µg/mL). It also gave an MIC [4] of 24 µM (≈ 8.03 µg/mL).
With `O=C(NNC(=O)c1ccncc1)C(=O)Nc1cc(Cl)ccc1O` the MIC [1] was 12 µM (≈ 4.02 µg/mL), the MIC [2] was > 96 µM and the MIC [3] was 12 µM (≈ 4.02 µg/mL). It also gave an MIC [4] of 24 µM (≈ 8.03 µg/mL).
`NNC(=O)c1ccncc1` [ISONIAZID] was tested, and the MIC [1] was 1.8 µM (≈ 0.247 µg/mL), the MIC [2] was > 233 µM and the MIC [3] was 1.8 µM (≈ 0.247 µg/mL). It also gave an MIC [4] of 1.8 µM (≈ 0.247 µg/mL).
